Here are results for 15 compounds from patent publication US20230212222A1 (ANYGEN CO., LTD., priority 2020, published 2023).

Data set [1] concerns the target T1, GPR39 (Homo sapiens, UniProt O43194).
T1 sequence (O43194 1-453): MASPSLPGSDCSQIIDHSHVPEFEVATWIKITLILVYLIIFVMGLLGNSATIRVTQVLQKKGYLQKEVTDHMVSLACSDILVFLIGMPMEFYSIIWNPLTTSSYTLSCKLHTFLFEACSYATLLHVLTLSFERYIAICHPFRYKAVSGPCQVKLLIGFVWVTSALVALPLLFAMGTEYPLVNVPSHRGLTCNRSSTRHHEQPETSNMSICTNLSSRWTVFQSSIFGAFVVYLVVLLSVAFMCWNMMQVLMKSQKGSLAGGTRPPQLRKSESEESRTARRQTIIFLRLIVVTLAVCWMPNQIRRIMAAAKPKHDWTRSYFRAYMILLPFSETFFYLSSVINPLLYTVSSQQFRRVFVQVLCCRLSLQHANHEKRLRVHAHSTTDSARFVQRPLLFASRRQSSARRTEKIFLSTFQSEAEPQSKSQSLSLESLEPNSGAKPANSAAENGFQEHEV
Experimental: (§1) Specifically, the fibroblast cell line CV-1 (1×10^5 cells/ml, Korea Cell Line Bank) was cultured in a 96 well cell culture plate for 24 hours, and then treated with GPR39 inserted into adenovirus and SRE (serum response element) luciferase at 50 MOI (multiplicity of infection) and 25 MOI virus for 3 hours, respectively, and then cultured for 24 hours.

The target in data set [2] is T1, GPR39. Briefly: luciferase assay system (SRE luciferase reporter gene) for GPR39 in CV-1 cells. Conditions: for EC50: EC50, CV-1 cells, GPR39 and SRE luciferase adenovirus, treated 6 hours, luminometer; for activity level for GPR39 (in words): comment on Table 3. Background: In a reporter assay the amount or activity of a reporter protein is the signal.
Experimental: as §1

Square brackets hold non-standard residues; d marks the D form. Peptide text beside a SMILES is read from it. * marks the point of attachment. His(Trt) = N[C@@H](Cc1cn(C(c2ccccc2)(c2ccccc2)c2ccccc2)cn1)C(=O)O; dHis(Trt) = N[C@H](Cc1cn(C(c2ccccc2)(c2ccccc2)c2ccccc2)cn1)C(=O)O; His(τ-CHPh2) = N[C@@H](Cc1cn(C(c2ccccc2)c2ccccc2)cn1)C(=O)O; Biotin = O=C1N[C@H]2[C@H](CS[C@H]2CCCCC(=O)*)N1; dPhe(4-CF3) = N[C@H](Cc1ccc(C(F)(F)F)cc1)C(=O)O; Bip = N[C@@H](Cc1ccc(-c2ccccc2)cc1)C(=O)O; Tyr(3-NH2) = Nc1cc(C[C@H](N)C(=O)O)ccc1O; dPhe(4-Cl) = N[C@H](Cc1ccc(Cl)cc1)C(=O)O; dPhe(4-Me) = Cc1ccc(C[C@@H](N)C(=O)O)cc1; Phe(4-Me) = Cc1ccc(C[C@H](N)C(=O)O)cc1; d3Pal = N[C@H](Cc1cccnc1)C(=O)O; Octanoyl = CCCCCCCC(=O)*; Orn = NCCC[C@H](N)C(=O)O

What is called EC50 is the concentration giving half of the maximal effect. A higher EC50 goes with a less potent agent. Turning to `CCCCCCCC(=O)NCCCC[C@H](NC(=O)[C@H](N)Cc1cn(C(c2ccccc2)(c2ccccc2)c2ccccc2)cn1)C(=O)N[C@H](Cc1ccc(Cl)cc1)C(=O)N[C@H](Cc1ccc(O)cc1)C(=O)O` [HKFY-14, ((R)-2-((S)-2-((R)-2-amino-3-(1-trityl-1H-imidazol-4-yl)propanamido)-6-octanamidohexanamido)-3-(4-chlorophenyl)propanoyl)-D-tyrosine] (H-[dHis(Trt)]K(Octanoyl)[dPhe(4-Cl)][dY]-OH), the “ECmax (-fold induction over basal)” value at GPR39 [1] is reported as 20.9 ± 1.4 -fold induction over basal. This compound registered a 50% effective concentration (EC50) at GPR39 [2] of 20 ± 3 nM.

For `CCCCCCCC(=O)NCCCC[C@H](NC(=O)[C@H](Cc1cn(C(c2ccccc2)(c2ccccc2)c2ccccc2)cn1)NC(=O)[C@H](CO)NC(=O)CN)C(=O)N[C@@H](Cc1ccccc1)C(=O)N[C@@H](Cc1ccc(O)cc1)C(=O)O` [HKFY-37, N2-(Na-glycyl-L-seryl-Nt-trityl-L-histidyl)-N6-octanoyl-L-lysyl-L-phenylalanyl-L-tyrosine] (H-GS[His(Trt)]K(Octanoyl)FY-OH), the “ECmax (-fold induction over basal)” value at GPR39 [1] is reported as 16 ± 1.7 -fold induction over basal. Besides, the EC50 on GPR39 [2] was found to be 1840 ± 200 nM.

With `CCCCCCCC(=O)NCCCC[C@H](NC(=O)[C@H](Cc1cn(C(c2ccccc2)c2ccccc2)cn1)NC(=O)CCCC[C@@H]1SC[C@@H]2NC(=O)N[C@@H]21)C(=O)N[C@@H](Cc1ccc(C)cc1)C(=O)N[C@@H](Cc1ccc(O)cc1)C(=O)O` [HKFY-72, ((S)-2-((S)-2-((S)-3-(1-benzhydryl-1H-imidazol-4-yl)-2-(5-((3aS,4S,6aR)-2-oxohexahydro-1H-thieno[3,4-d]imidazol-4-yl)pentanamido)propanamido)-6-octanamidohexanamido)-3-(p-tolyl)propanoyl)-L-tyrosine] (Biotin-[His(τ-CHPh2)]K(Octanoyl)[Phe(4-Me)]Y-OH), the “ECmax (-fold induction over basal)” value on GPR39 [1] is reported as 10.4 ± 1.12 -fold induction over basal. In addition, at GPR39 [2], the EC50 turned out to be 11 ± 2 nM.

On to `CCCCCCCC(=O)NCCCC[C@H](NC(=O)[C@@H](N)Cc1cn(C(c2ccccc2)(c2ccccc2)c2ccccc2)cn1)C(=O)N[C@H](Cc1cccnc1)C(=O)N[C@@H](Cc1ccc(O)cc1)C(=O)O` [HKFY-73, ((R)-2-((S)-2-((S)-2-amino-3-(1-trityl-1H-imidazol-4-yl)propanamido)-6-octanamidohexanamido)-3-(pyridin-3-yl)propanoyl)-L-tyrosine] (H-[His(Trt)]K(Octanoyl)[d3Pal]Y-OH), for which, on GPR39 [1], the “ECmax (-fold induction over basal)” value is 11.6 ± 2.3 -fold induction over basal. The same compound returned an EC50 on GPR39 [2] of 23 ± 1 nM.

For `CCCCCCCC(=O)NCCCC[C@H](NC(=O)[C@@H](N)Cc1cn(C(c2ccccc2)c2ccccc2)cn1)C(=O)N[C@H](Cc1ccc(C)cc1)C(=O)N[C@@H](Cc1ccc(O)c(N)c1)C(=O)O` [HKFY-70, (S)-2-((R)-2-((S)-2-((S)-2-amino-3-(1-benzhydryl-1H-imidazol-4-yl)propanamido)-6-octanamidohexanamido)-3-(p-tolyl)propanamido)-3-(3-amino-4-hydroxyphenyl)propanoic acid] (H-[His(τ-CHPh2)]K(Octanoyl)[dPhe(4-Me)][Tyr(3-NH2)]-OH), the “ECmax (-fold induction over basal)” value on GPR39 [1] is reported as 10.1 ± 1.6 -fold induction over basal. The compound also showed an EC50 on GPR39 [2] of 20 ± 1 nM.

As to `CCCCCCCC(=O)NCCCC[C@H](NC(=O)[C@@H](N)Cc1cn(C(c2ccccc2)c2ccccc2)cn1)C(=O)N[C@H](Cc1ccc(C)cc1)C(=O)N[C@@H](Cc1ccc(O)cc1)C(N)=O` [HKFY-66, N-((S)-5-((S)-2-amino-3-(1-benzhydryl-1H-imidazol-4-yl)propanamido)-6-(((R)-1-(((S)-1-amino-3-(4-hydroxyphenyl)-1-oxopropan-2-yl)amino)-1-oxo-3-(p-tolyl)propan-2-yl)amino)-6-oxohexyl)octanamide] (H-[His(τ-CHPh2)]K(Octanoyl)[dPhe(4-Me)]Y-NH2), the “ECmax (-fold induction over basal)” value at GPR39 [1] is listed as 20.2 ± 3.5 -fold induction over basal. Besides, the EC50 at GPR39 [2] was 11 ± 1 nM.

On to `CCCCCCCC(=O)NCCCC[C@H](NC(=O)[C@@H](N)Cc1cn(-c2ccccc2)cn1)C(=O)N[C@H](Cc1ccc(C)cc1)C(=O)N[C@@H](Cc1ccc(O)cc1)C(=O)O` [HKFY-58, ((R)-2-((S)-2-((S)-2-amino-3-(1-phenyl-1H-imidazol-4-yl)propanamido)-6-octanamidohexanamido)-3-(p-tolyl)propanoyl)-L-tyrosine], for which the “ECmax (-fold induction over basal)” value on GPR39 [1] is given as 9.12 ± 2.1 -fold induction over basal. At GPR39 [2], the EC50 stood at 20 ± 2 nM.

As to `CCCCCCCC(=O)NCCCC[C@H](NC(=O)[C@@H](N)Cc1cn(C(c2ccccc2)(c2ccccc2)c2ccccc2)cn1)C(=O)N[C@H](Cc1ccc(C(F)(F)F)cc1)C(=O)N[C@@H](Cc1ccc(O)cc1)C(=O)O` [HKFY-76, ((R)-2-((S)-2-((S)-2-amino-3-(1-trityl-1H-imidazol-4-yl)propanamido)-6-octanamidohexanamido)-3-(4-(trifluoromethyl)phenyl)propanoyl)-L-tyrosine] (H-[His(Trt)]K(Octanoyl)[dPhe(4-CF3)]Y-OH), at GPR39 [1], the “ECmax (-fold induction over basal)” value is 14.2 ± 3.75 -fold induction over basal. Moreover, the response on GPR39 [2] was half-maximal at 7 ± 1 nM (EC50).

As for `CCCCCCCC(=O)NCCCC[C@H](NC(=O)[C@@H](N)Cc1cn(C(c2ccccc2)c2ccc(OC)cc2)cn1)C(=O)N[C@H](Cc1ccc(C)cc1)C(=O)N[C@@H](Cc1ccc(O)cc1)C(=O)O` (stereo partly drawn) [HKFY-64, ((2R)-2-((2S)-2-((2S)-2-amino-3-(1-((4-methoxyphenyl)(phenyl)methyl)-1H-imidazol-4-yl)propanamido)-6-octanamidohexanamido)-3-(p-tolyl)propanoyl)-L-tyrosine], on GPR39 [1], the “ECmax (-fold induction over basal)” value is on record as 16 ± 1.5 -fold induction over basal. In addition, at GPR39 [2], the response was half-maximal at 7 ± 1 nM (EC50) and the “activity level for GPR39 (in words)” value is listed as “higher activity level than other HJKFY derivatives”.

With `CCCCCCCC(=O)NCCCC[C@H](NC(=O)[C@H](Cc1cn(C(c2ccccc2)(c2ccccc2)c2ccccc2)cn1)NC(=O)CCCC[C@@H]1SC[C@@H]2NC(=O)N[C@@H]21)C(=O)N[C@@H](Cc1ccc(-c2ccccc2)cc1)C(=O)N[C@@H](Cc1ccc(O)cc1)C(=O)O` [HKFY-45, ((S)-3-([1,1′-biphenyl]-4-yl)-2-((S)-6-octanamido-2-((S)-2-(5-((3aS,4S,6aR)-2-oxohexahydro-1H-thieno[3,4-d]imidazol-4-yl)pentanamido)-3-(1-trityl-1H-imidazol-4-yl)propanamido)hexanamido)propanoyl)-L-tyrosine] (Biotin-[His(Trt)]K(Octanoyl)[Bip]Y-OH), the “ECmax (-fold induction over basal)” value on GPR39 [1] was 21 ± 2.58 -fold induction over basal. In addition, the midpoint of the response on GPR39 [2], the EC50, lay at 140 ± 50 nM.

Turning to `CCCCCCCC(=O)NCCCC[C@H](NC(=O)[C@@H](N)Cc1c[nH]c(-c2ccccc2)n1)C(=O)N[C@H](Cc1ccc(C)cc1)C(=O)N[C@@H](Cc1ccc(O)cc1)C(=O)O` [HKFY-57, ((R)-2-((S)-2-((S)-2-amino-3-(2-phenyl-1H-imidazol-4-yl)propanamido)-6-octanamidohexanamido)-3-(p-tolyl)propanoyl)-L-tyrosine], the “ECmax (-fold induction over basal)” value on GPR39 [1] was 8.5 ± 2.3 -fold induction over basal. On GPR39 [2], this compound displayed a 50% effective concentration (EC50) of 260 ± 10 nM.

For the compound `CCCCCCCC(=O)NCCC[C@H](NC(=O)[C@@H](N)Cc1cn(C(c2ccccc2)c2ccccc2)cn1)C(=O)N[C@H](Cc1ccc(C)cc1)C(=O)N[C@@H](Cc1ccc(O)cc1)C(=O)O` [HKFY-71, ((R)-2-((S)-2-((S)-2-amino-3-(1-benzhydryl-1H-imidazol-4-yl)propanamido)-5-octanamidopentanamido)-3-(p-tolyl)propanoyl)-L-tyrosine] (H-[His(τ-CHPh2)][Orn](Octanoyl)[dPhe(4-Me)]Y-OH), at GPR39 [1], the “ECmax (-fold induction over basal)” value was 16.4 ± 2.51 -fold induction over basal. The same compound registered an EC50 on GPR39 [2] of 12 ± 3 nM.

On to `CCCCCCCC(=O)NCCCC[C@H](NC(=O)[C@@H](N)Cc1cn(C(c2ccccc2)c2ccccc2)cn1)C(=O)N[C@@H](Cc1ccccc1)C(=O)N[C@@H](Cc1ccc(O)cc1)C(=O)O` [HKFY-33, N2-(Nt-benzhydryl-L-histidyl)-N6-octanoyl-L-lysyl-L-phenylalanyl-L-tyrosine] (H-[His(τ-CHPh2)]K(Octanoyl)FY-OH), for which, on GPR39 [1], the “ECmax (-fold induction over basal)” value was 20 ± 0.57 -fold induction over basal. The compound also had a half-maximal effective concentration (EC50) at GPR39 [2] of 150 ± 70 nM.

With `CCCCCCCC(=O)NCCCC[C@H](NC(=O)[C@@H](N)Cc1cn(C(c2ccccc2)c2ccc(O)cc2)cn1)C(=O)N[C@H](Cc1ccc(C)cc1)C(=O)N[C@@H](Cc1ccc(O)cc1)C(=O)O` (stereo partly drawn) [HKFY-65, ((2R)-2-((2S)-2-((2S)-2-amino-3-(1-((4-hydroxyphenyl)(phenyl)methyl)-1H-imidazol-4-yl)propanamido)-6-octanamidohexanamido)-3-(p-tolyl)propanoyl)-L-tyrosine], the “ECmax (-fold induction over basal)” value at GPR39 [1] is 18.3 ± 2.2 -fold induction over basal. Also, the “activity level for GPR39 (in words)” value at GPR39 [2] is reported as “higher activity level than other HJKFY derivatives”.

With `CCCCCCCC(=O)NCCCC[C@H](NC(=O)[C@@H](N)Cc1cn(C(c2ccccc2)(c2ccccc2)c2ccc(C)cc2)cn1)C(=O)N[C@@H](Cc1ccccc1)C(=O)N[C@@H](Cc1ccc(O)cc1)C(=O)O` [HKFY-5, N2-(Nt-(diphenyl(p-tolyl)methyl)-L-histidyl)-N6-octanoyl-L-lysyl-L-phenylalanyl-L-tyrosine], at GPR39 [1], the “ECmax (-fold induction over basal)” value is reported as 16 ± 1.7 -fold induction over basal. On GPR39 [2], this compound gave a 50% effective concentration (EC50) of 1840 ± 200 nM.
